Assay results from patent publication US9526254B2, “Pesticide and repellant” (ECOSPRAY LIMITED, priority 2005, dated 2016).

Tested on: cabbage root fly
Test: Swede field trials in Norway, cabbage root fly damage (four sites)
Type: in vivo
Experimental: An extensive program of non-public field trials, which included five crops of swede were carried out. The field trials design was based around multiple applications of either ECOguard® liquid (garlic juice concentrate) or granules (wood flour granules impregnated with the garlic juice concentrate) and in four out of the five swede trials was referenced against Dimethoate as a standard.

SMILES: CNC(=O)CSP(=S)(OC)OC [Dimethoate]
- Combined root damage index (RDI), % Change (in vivo): −5.8%
- Combined root damage index (RDI), Ga-Fa (in vivo): 65.78
- Combined root damage index (RDI), Mid-Troms (in vivo): 40.60
- Combined root damage index (RDI), Sor Ost (in vivo): 24.92
- Combined root damage index (RDI), Toten (in vivo): 44.33
- Difference of Means (trt 1 control subtracted from trt), cabbage root fly damage (in vivo): −0.3100
- cabbage root fly damage, statistical analysis (in vivo): significantly reduced damage
- mean saleable yield (cat 1 + 2), % Change (mean of four sites versus control): +8%
